Measured values published in patent publication US9216106B2, “Device and method for the delivery of drugs for the treatment of posterior segment disease” (DIRECTCONTACT LLC, priority 2003, dated 2015).

How the values were obtained:
[1] = Release of drug from hydrogel lens in contact with the cornea; type: in vivo; settings: after 2 hours of contact with the cornea; lens with about 700 ng beclomethasone or 450 ng prednisolone
Method: In some embodiments, such as with classes of corticosteroids, a single hydrogel contact lens may be loaded with about […] of active compound. For instance, experiments have shown that an effective concentration of beclomethasone can be delivered to the posterior segment by treating with a lens that includes about 700 ng of the compound. […] In each case, about 95% of the drug exited the lens after 2 hours of contact with the cornea. It is believed that the consistent pore size of the hydrogels provides for a consistent delivery rate of a variety of compounds.

[2] = rabbit, in vivo
Method: A series of experiments were designed to determine the efficacy of delivery to the posterior segment from a hydrogel positioned on the cornea.
In the first experiment, rabbits were treated by placing hydrogel lenses on the corneas of the animals for a period of 3 hours. Each lens was infused with about 450 ng of prednisolone incorporated therein. The lenses were placed onto the eyes of anesthetized animals (closed eye period) for the three hour period after which time the lenses were removed. The procedure was repeated about every other day or every three days until 5 applications had been completed.
After completion of the five applications, each eye of the animal was analyzed for prednisolone concentration using LC/MS/MS. The portion of the posterior segment that was analyzed included macula, retina, surrounding muscle, nerve and circulatory, including connective tissues and cells. Sample size typically was about 800 mg. […] The limit of quantification for prednisolone was 0.5 ng/mL and for prednisone was 0.05 ng/mL.

drug exited the lens [1]	average concentration in the posterior segment relative to the amount provided in the hydrogel lenses [2]	Structure (SMILES)
about 95%		C[C@H]1C[C@H]2[C@@H]3CCC4=CC(=O)C=C[C@]4(C)[C@@]3(Cl)[C@@H](O)C[C@]2(C)[C@@]1(O)C(=O)CO [Beclomethasone, beclomethasone]
about 95%	greater than 10%	C[C@]12C=CC(=O)C=C1CC[C@@H]1[C@@H]2[C@@H](O)C[C@@]2(C)[C@H]1CC[C@]2(O)C(=O)CO [Prednisolone, prednisolone]
